Test: method code SF-AS, from Yamada, T.; Tsukamoto, Y.; Shimamura, H.; Banno, S.; Sato, M. (1983). Pyridazinones 4. synthesis anti secretory and anti ulcer activities of urea derivatives. Eur J Med Chem, 18(3)209-214.

| Structure (SMILES) | logP |
| --- | --- |
| NC(=O)NCCCCCn1nc(-c2ccccc2)ccc1=O | 1.08 |
| CN(C)C(=O)NCCCn1nc(-c2ccccc2)ccc1=O | 1.61 |
| CCNC(=O)NCCCCn1nc(-c2ccccc2)ccc1=O | 1.83 |
| CCN(CC)C(=O)NCCCCCCn1nc(-c2ccccc2)ccc1=O | 1.85 |
| NC(=O)NCCCCn1nc(-c2ccccc2)ccc1=O | 1.21 |
| CNC(=O)NCCCCCn1nc(-c2ccccc2)ccc1=O | 1.26 |
| O=C(NCCCCn1nc(-c2ccccc2)ccc1=O)NC1CCCCC1 | 1.99 |
| CC(C)(C)NC(=O)NCCCCn1nc(-c2ccccc2)ccc1=O | 2.07 |
| O=C(NCCCCn1nc(-c2ccccc2)ccc1=O)Nc1ccccc1 | 2.32 |
| CNC(=O)NCCn1nc(-c2ccccc2)ccc1=O | 0.39 |
| CN(C)C(=O)NCCCCn1nc(-c2ccccc2)ccc1=O | 1.58 |
| CNC(=O)NCCCCCCCn1nc(-c2ccccc2)ccc1=O | 1.06 |
| CCNC(=O)NCCCCCCn1nc(-c2ccccc2)ccc1=O | 1.81 |
| NC(=O)NCCn1nc(-c2ccccc2)ccc1=O | 0.52 |
| CCNC(=O)NCCCn1nc(-c2ccccc2)ccc1=O | 1.68 |
| CCCNC(=O)NCCCCn1nc(-c2ccccc2)ccc1=O | 1.71 |

| Structure (SMILES) | logP |
| --- | --- |
| O=C(NCCCCCn1nc(-c2ccccc2)ccc1=O)NC1CCCCC1 | 2.03 |
| CNC(=O)NCCCn1nc(-c2ccccc2)ccc1=O | 1.16 |
| CCN(CC)C(=O)NCCCCn1nc(-c2ccccc2)ccc1=O | 1.89 |
| CNC(=O)NCCCCn1nc(-c2ccccc2)ccc1=O | 1.23 |
| CCN(CC)C(=O)NCCCn1nc(-c2ccccc2)ccc1=O | 1.72 |
| CC(C)NC(=O)NCCCCn1nc(-c2ccccc2)ccc1=O | 1.91 |
| NC(=O)NCCCn1nc(-c2ccccc2)ccc1=O | 0.69 |
| CNC(=O)NCCCCCCn1nc(-c2ccccc2)ccc1=O | 1.31 |
| Cc1ccc(S(=O)(=O)NC(=O)NCCCCn2nc(-c3ccccc3)ccc2=O)cc1 | 1.77 |
| CN(C)C(=O)NCCCCCCn1nc(-c2ccccc2)ccc1=O | 1.45 |
| NC(=O)NCCCCCCn1nc(-c2ccccc2)ccc1=O | 1.82 |
| CCCCNC(=O)NCCCCn1nc(-c2ccccc2)ccc1=O | 2.2 |
| CNC(=O)NCCCCCCCCn1nc(-c2ccccc2)ccc1=O | 0.84 |
| CN(C)C(=O)NCCCCCn1nc(-c2ccccc2)ccc1=O | 1.74 |
| CCNC(=O)NCCCCCn1nc(-c2ccccc2)ccc1=O | 1.76 |
